Measured values taken from paper PMC12030650, “Synthesis, Antitumor Activities, and Apoptosis-Inducing Activities of Schiff’s Bases Incorporating Imidazolidine-2,4-dione Scaffold: Molecular Docking Studies and Enzymatic Inhibition Activities” (Pharmaceuticals, 2025).
“And” between values parts separate entries of the source, which are not always exact repeats. Identical values can stand only once. Like-named read-outs stand apart in the source and are kept apart here.

Legend:
[1] = system: breast adenocarcinoma (MCF-7); experiment: MTT cytotoxicity assay, MCF-7; conditions: for IC50: Homo sapiens, MCF7, read-out: IC50 MCF-7; for SI (selectivity index) MCF-7: WI-38 vs MCF-7
hepatoblastoma (HePG-2) = experiment: MTT cytotoxicity assay, HePG-2; conditions: for IC50: Homo sapiens, HepG2, read-out: IC50 HePG-2; for SI (selectivity index) HePG-2: WI-38 vs HePG-2
[2] = system: human colorectal carcinoma (HCT-116); experiment: MTT cytotoxicity assay, HCT-116; conditions: for IC50: Homo sapiens, HCT-116, read-out: IC50 HCT-116; for SI (selectivity index) HCT-116: WI-38 vs HCT-116
EGFR = target: T1, EGFR (Homo sapiens, UniProt P00533); experiment: In vitro luminescent EGFR tyrosine kinase assay (Kinase-Glo Max); assay type: biochemical; conditions: read-out: Kinase Inhibition IC50 EGFR
T1 construct: purchased BPS Bioscience 40321
T1 sequence (P00533 25-1210): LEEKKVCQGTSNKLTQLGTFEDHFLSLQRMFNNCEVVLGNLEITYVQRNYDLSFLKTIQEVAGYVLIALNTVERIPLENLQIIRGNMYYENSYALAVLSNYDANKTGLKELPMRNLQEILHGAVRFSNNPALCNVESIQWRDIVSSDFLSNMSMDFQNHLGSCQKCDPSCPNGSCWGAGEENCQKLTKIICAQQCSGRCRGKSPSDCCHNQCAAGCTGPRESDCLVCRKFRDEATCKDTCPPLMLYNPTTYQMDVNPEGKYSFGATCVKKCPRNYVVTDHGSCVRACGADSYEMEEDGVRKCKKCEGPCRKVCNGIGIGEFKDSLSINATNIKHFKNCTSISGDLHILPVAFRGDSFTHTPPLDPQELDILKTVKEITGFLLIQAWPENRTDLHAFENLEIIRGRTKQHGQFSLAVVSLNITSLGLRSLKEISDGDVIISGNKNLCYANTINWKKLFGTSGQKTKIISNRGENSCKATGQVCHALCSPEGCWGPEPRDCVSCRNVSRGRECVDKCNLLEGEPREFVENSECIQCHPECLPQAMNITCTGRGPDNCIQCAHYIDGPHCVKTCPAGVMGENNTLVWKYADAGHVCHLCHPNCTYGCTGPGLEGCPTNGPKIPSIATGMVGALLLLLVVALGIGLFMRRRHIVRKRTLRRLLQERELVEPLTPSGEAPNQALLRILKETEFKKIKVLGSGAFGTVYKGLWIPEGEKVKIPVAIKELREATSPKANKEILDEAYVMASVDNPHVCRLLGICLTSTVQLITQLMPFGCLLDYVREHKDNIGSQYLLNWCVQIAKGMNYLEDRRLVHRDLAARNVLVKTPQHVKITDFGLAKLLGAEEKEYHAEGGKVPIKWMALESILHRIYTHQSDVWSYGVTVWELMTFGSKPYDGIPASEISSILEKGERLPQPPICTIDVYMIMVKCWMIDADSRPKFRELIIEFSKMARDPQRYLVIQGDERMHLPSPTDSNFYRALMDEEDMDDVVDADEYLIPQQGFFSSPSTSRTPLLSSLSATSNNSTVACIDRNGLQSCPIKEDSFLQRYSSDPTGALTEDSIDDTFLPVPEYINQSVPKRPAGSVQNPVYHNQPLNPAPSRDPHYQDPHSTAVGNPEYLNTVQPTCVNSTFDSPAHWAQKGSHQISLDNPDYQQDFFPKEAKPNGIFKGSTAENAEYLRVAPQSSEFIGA

HER2 = target: T2, HER2 (Homo sapiens, UniProt P04626); experiment: In vitro luminescent HER2 tyrosine kinase assay (Kinase-Glo Max); assay type: biochemical; conditions: read-out: Kinase Inhibition IC50 HER2
T2 construct: purchased BPS Bioscience 40721
T2 sequence (P04626 23-1255): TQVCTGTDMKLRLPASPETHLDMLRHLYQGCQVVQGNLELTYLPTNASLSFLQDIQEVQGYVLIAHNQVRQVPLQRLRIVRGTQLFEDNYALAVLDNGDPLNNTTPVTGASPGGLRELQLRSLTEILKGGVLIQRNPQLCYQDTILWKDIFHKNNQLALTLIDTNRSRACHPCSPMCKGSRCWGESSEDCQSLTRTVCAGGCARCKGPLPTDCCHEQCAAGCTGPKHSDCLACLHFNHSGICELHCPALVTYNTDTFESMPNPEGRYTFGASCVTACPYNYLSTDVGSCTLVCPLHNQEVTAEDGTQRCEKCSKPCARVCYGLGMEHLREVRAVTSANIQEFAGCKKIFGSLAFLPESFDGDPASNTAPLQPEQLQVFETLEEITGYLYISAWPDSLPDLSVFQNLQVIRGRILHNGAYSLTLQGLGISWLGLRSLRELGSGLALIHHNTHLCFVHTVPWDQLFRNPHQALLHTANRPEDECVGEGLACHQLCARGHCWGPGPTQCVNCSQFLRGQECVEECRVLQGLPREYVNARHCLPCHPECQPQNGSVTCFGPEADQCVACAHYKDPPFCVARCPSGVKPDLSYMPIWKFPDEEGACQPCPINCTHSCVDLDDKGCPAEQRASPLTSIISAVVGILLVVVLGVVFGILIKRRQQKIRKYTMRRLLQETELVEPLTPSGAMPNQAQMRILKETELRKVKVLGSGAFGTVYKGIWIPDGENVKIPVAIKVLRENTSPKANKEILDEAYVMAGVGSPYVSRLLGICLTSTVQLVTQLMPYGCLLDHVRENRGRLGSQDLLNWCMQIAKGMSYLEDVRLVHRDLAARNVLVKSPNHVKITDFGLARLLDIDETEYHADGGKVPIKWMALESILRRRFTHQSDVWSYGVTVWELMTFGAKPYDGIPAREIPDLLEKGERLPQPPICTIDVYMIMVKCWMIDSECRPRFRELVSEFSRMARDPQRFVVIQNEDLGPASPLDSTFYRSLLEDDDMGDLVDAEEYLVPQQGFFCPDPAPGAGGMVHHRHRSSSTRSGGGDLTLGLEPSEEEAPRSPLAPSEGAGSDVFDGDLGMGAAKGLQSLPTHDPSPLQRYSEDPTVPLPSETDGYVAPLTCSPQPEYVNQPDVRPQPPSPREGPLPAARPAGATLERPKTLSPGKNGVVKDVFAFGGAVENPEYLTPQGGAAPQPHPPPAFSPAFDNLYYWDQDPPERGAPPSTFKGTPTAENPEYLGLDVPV
Procedure: […]. Erlotinib was probed as the standard drug in the EGFR inhibition assay, while lapatinib was tested as the […]. […].
EGFR and HER2 kinase inhibitory activities were determined based on the manufacturer’s guidelines (EGFR Kinase Assay Kit Catalog no. 40321 and HER2 Kinase Assay Kit Catalog no. 40721, BPS Bioscience, San Diego, CA).

[3] = system: WI-38 normal fibroblast cell line; experiment: MTT cytotoxicity against normal human cells; assay type: cell-based; conditions: for IC50: Homo sapiens
Procedure: The evaluation was conducted using a 3-(4,5-dimethylthiazol-2-yl)-2,5-diphenyltetrazolium bromide (MTT) assay, as described by the authors of [50, 51]. The cell lines were obtained from ATCC. For comparative purposes, standard drugs, such as doxorubicin and erlotinib, were employed.

[4] = system: HCT-116, HePG-2, and MCF-7; experiment: MTT cytotoxicity, summary over the examined cancer cell lines; conditions: Homo sapiens
[5] = system: anti-apoptotic protein MCL-1 in MCF-7; experiment: MCL-1 expression in MCF-7 cells (ELISA); assay type: cell-based, human
Procedure: (§1) Apoptosis is regulated by intrinsic pathways such as the B-cell lymphoma-2 (BCL-2) family. […] MCL-1, one of the BCL-2 family members, is likely to have a significant role in cell death. The expression of MCL-1 and BCL-2 in MCF-7 cells treated with different concentrations was studied.
(§2) Apoptosis of the MCF-7 cancer cell line was measured using the Human MCL1eia kit (ELISA Kit) for the MCL-1 enzyme assay and the Invitrogen Zymed® Bcl-2 ELISA Kit for the BCL-2 enzyme assay. The ROBONIK P2000 ELISA READER was used for analysis.

MCF-7 cell line = experiment: Cell cycle analysis (propidium iodide, flow cytometry); assay type: cell-based, human
Excerpt: Cell cycle analysis is used to quantify DNA content distribution via flow cytometry at various cell cycle stages (pre-G1, G1, S, and G2/M). Compound 24 was selected to analyze its effect on cell cycle progression in the MCF-7 cell line at different concentrations.
Cancer cell line MCF-7 was stained with ab139418_Propidium Iodide (DNA stain) and analyzed using a FACSCalibur flow cytometer.

[6] = system: anti-apoptotic protein BCL-2 in MCF-7; experiment: BCL-2 expression in MCF-7 cells (ELISA); assay type: cell-based, human
Procedure: as §1, §2

[7] = normal fibroblast WI-38, read-out: IC50 WI-38
[8] = read-out: average IC50 versus the examined cell lines
[9] = read-out: IC50 range against the selected cell lines

CC(=NNC(=O)CN1C(=O)NC(c2ccccc2)(c2ccccc2)C1=O)c1ccc(C(F)(F)F)cc1 [Compound 12, 2-(2,5-Dioxo-4,4-diphenylimidazolidin-1-yl)-N′-(1-(4-(trifluoromethyl)phenyl)ethylidene)acetohydrazide]
IC50 [1]: 45.8 ± 2.4 µM | IC50 (hepatoblastoma (HePG-2)): 47.7 ± 2.7 µM | IC50 [2]: 52.5 ± 3 µM

CC(=NNC(=O)CN1C(=O)NC(c2ccccc2)(c2ccccc2)C1=O)c1ccccc1 [Compound 7, 2-(2,5-Dioxo-4,4-diphenylimidazolidin-1-yl)-N′-(1-phenylethylidene)acetohydrazide]
IC50 [1]: 38.3 ± 2.2 µM | IC50 (hepatoblastoma (HePG-2)): 55.8 ± 3.3 µM | IC50 [2]: 47.5 ± 2.8 µM

COc1cccc(C(C)=NNC(=O)CN2C(=O)NC(c3ccccc3)(c3ccccc3)C2=O)c1 [Compound 15, 2-(2,5-Dioxo-4,4-diphenylimidazolidin-1-yl)-N′-(1-(3-methoxyphenyl)ethylidene)acetohydrazide]
IC50 [1]: 55.3 ± 3.2 µM | IC50 (hepatoblastoma (HePG-2)): 45.1 ± 2.5 µM | IC50 [2]: 53.9 ± 3.1 µM

COc1ccc(C(C)=NNC(=O)CN2C(=O)NC(c3ccccc3)(c3ccccc3)C2=O)cc1OC [Compound 17, N′-(1-(3,4-Dimethoxyphenyl)ethylidene)-2-(2,5-dioxo-4,4-diphenylimidazolidin-1-yl)acetohydrazide]
IC50 [1]: 15.7 ± 1.3 µM | IC50 (hepatoblastoma (HePG-2)): 19.6 ± 1.7 µM | IC50 [2]: 26.8 ± 2 µM

CC(=NNC(=O)CN1C(=O)NC(c2ccccc2)(c2ccccc2)C1=O)c1cccs1 [Compound 26, 2-(2,5-Dioxo-4,4-diphenylimidazolidin-1-yl)-N′-(1-(thiophen-2-yl)ethylidene)acetohydrazide]
IC50 [1]: 76.8 ± 4.2 µM | IC50 (hepatoblastoma (HePG-2)): 32.3 ± 2.2 µM | IC50 [2]: 87.5 ± 4.6 µM

CC(=NNC(=O)CN1C(=O)NC(c2ccccc2)(c2ccccc2)C1=O)c1ccc(F)cc1 [Compound 11, 2-(2,5-Dioxo-4,4-diphenylimidazolidin-1-yl)-N′-(1-(4-fluorophenyl)ethylidene)acetohydrazide]
IC50 [1]: 14.2 ± 1.2 µM | IC50 (hepatoblastoma (HePG-2)): 21.1 ± 1.8 µM | IC50 [2]: 28.3 ± 2.1 µM

COc1ccc(C(C)=NNC(=O)CN2C(=O)NC(c3ccccc3)(c3ccccc3)C2=O)cc1 [Compound 16, 2-(2,5-Dioxo-4,4-diphenylimidazolidin-1-yl)-N′-(1-(4-methoxyphenyl)ethylidene)acetohydrazide]
IC50 [1]: 35.8 ± 2.1 µM | IC50 (hepatoblastoma (HePG-2)): 27.3 ± 2 µM | IC50 [2]: 36.5 ± 2.4 µM

CC(=NNC(=O)CN1C(=O)NC(c2ccccc2)(c2ccccc2)C1=O)c1ccccc1C [Compound 8, 2-(2,5-Dioxo-4,4-diphenylimidazolidin-1-yl)-N′-(1-(o-tolyl)ethylidene)acetohydrazide]
IC50 [1]: 34.1 ± 2 µM | IC50 (hepatoblastoma (HePG-2)): 25.4 ± 1.8 µM | IC50 [2]: 37.6 ± 2.3 µM

CC(=NNC(=O)CN1C(=O)NC(c2ccccc2)(c2ccccc2)C1=O)c1ccc(C)cc1 [Compound 9, 2-(2,5-Dioxo-4,4-diphenylimidazolidin-1-yl)-N′-(1-(p-tolyl)ethylidene)acetohydrazide]
IC50 [1]: 69 ± 3.9 µM | IC50 (hepatoblastoma (HePG-2)): 29.7 ± 2.1 µM | IC50 [2]: 71.2 ± 3.8 µM

CC(=NNC(=O)CN1C(=O)NC(c2ccccc2)(c2ccccc2)C1=O)c1ccc([N+](=O)[O-])cc1 [Compound 19, 2-(2,5-Dioxo-4,4-diphenylimidazolidin-1-yl)-N′-(1-(4-nitrophenyl)ethylidene)acetohydrazide]
IC50 [1]: 20.4 ± 1.5 µM | IC50 (hepatoblastoma (HePG-2)): 19.9 ± 1.8 µM | IC50 [2]: 31.3 ± 2.1 µM

CC(=NNC(=O)CN1C(=O)NC(c2ccccc2)(c2ccccc2)C1=O)c1ccccn1 [Compound 20, 2-(2,5-Dioxo-4,4-diphenylimidazolidin-1-yl)-N′-(1-(pyridin-2-yl)ethylidene)acetohydrazide]
IC50 [1]: 32.4 ± 1.9 µM | IC50 (hepatoblastoma (HePG-2)): 49.1 ± 2.8 µM | IC50 [2]: 46.7 ± 2.7 µM

CC(=NNC(=O)CN1C(=O)NC(c2ccccc2)(c2ccccc2)C1=O)c1ccco1 [Compound 25, 2-(2,5-Dioxo-4,4-diphenylimidazolidin-1-yl)-N′-(1-(furan-2-yl)ethylidene)acetohydrazide]
IC50 [1]: 47.3 ± 2.6 µM | IC50 (hepatoblastoma (HePG-2)): 34.6 ± 2.1 µM | IC50 [2]: 49.9 ± 2.9 µM

CC(=NNC(=O)CN1C(=O)NC(c2ccccc2)(c2ccccc2)C1=O)c1cccc2ccccc12 [Compound 23, 2-(2,5-Dioxo-4,4-diphenylimidazolidin-1-yl)-N′-(1-(naphthalen-1-yl)ethylidene)acetohydrazide]
IC50 [1]: 28.1 ± 1.7 µM | IC50 (hepatoblastoma (HePG-2)): 31.8 ± 2.1 µM | IC50 [2]: 34.4 ± 2.3 µM

CC(=NNC(=O)CN1C(=O)NC(c2ccccc2)(c2ccccc2)C1=O)c1cccnc1 [Compound 21, 2-(2,5-Dioxo-4,4-diphenylimidazolidin-1-yl)-N′-(1-(pyridin-3-yl)ethylidene)acetohydrazide]
IC50 [1]: 8.61 ± 0.6 µM | SI (selectivity index) MCF-7 [1]: 7.06 | IC50 (hepatoblastoma (HePG-2)): 11.5 ± 1 µM | SI (selectivity index) HePG-2 (hepatoblastoma (HePG-2)): 5.2 and 5.28 | IC50 (EGFR): 1.61 ± 0.07 µM | IC50 (HER2): 1.17 ± 0.04 µM | IC50 [3, 7]: 60.8 µM | IC50 WI-38 ([3]; normal fibroblast WI-38): low cytotoxicity | IC50 [2]: 19.2 ± 1.5 µM | SI (selectivity index) HCT-116 [2]: 3.1 and 3.15 | IC50 [4, 8]: 13.1 µM

CC(=NNC(=O)CN1C(=O)NC(c2ccccc2)(c2ccccc2)C1=O)c1ccc(Cl)s1 [Compound 27, N′-(1-(5-Chlorothiophen-2-yl)ethylidene)-2-(2,5-dioxo-4,4-diphenylimidazolidin-1-yl)acetohydrazide]
IC50 [1]: 19.7 ± 1.5 µM | IC50 (hepatoblastoma (HePG-2)): 16.8 ± 1.6 µM | IC50 [2]: 33.2 ± 2.2 µM

CC(=NNC(=O)CN1C(=O)NC(c2ccccc2)(c2ccccc2)C1=O)c1ccc(Cl)cc1 [Compound 10, N′-(1-(4-Chlorophenyl)ethylidene)-2-(2,5-dioxo-4,4-diphenylimidazolidin-1-yl)acetohydrazide]
IC50 [1]: 11.2 ± 0.9 µM | SI (selectivity index) MCF-7 [1]: 4.8 and 4.84 | IC50 (hepatoblastoma (HePG-2)): 10.7 ± 0.9 µM | SI (selectivity index) HePG-2 (hepatoblastoma (HePG-2)): 5.0 and 5.07 | IC50 (EGFR): 0.67 ± 0.03 µM | IC50 (HER2): 0.71 ± 0.02 µM | IC50 [3, 7]: 54.2 µM | IC50 WI-38 ([3]; normal fibroblast WI-38): low cytotoxicity | IC50 [2]: 17.9 ± 1.4 µM | SI (selectivity index) HCT-116 [2]: 3.0 and 3.02 | IC50 [4, 8]: 13.2 µM

COc1cccc2c1C(=O)c1c(O)c3c(c(O)c1C2=O)C[C@@](O)(C(=O)CO)C[C@@H]3O[C@H]1C[C@H](N)[C@H](O)[C@H](C)O1 [Doxorubicin, reference compound]
IC50 (hepatoblastoma (HePG-2)): 4.5 ± 0.2 µM | IC50 [4, 9]: 4.17 to 5.23 µM

C#Cc1cccc(Nc2ncnc3cc(OCCOC)c(OCCOC)cc23)c1 [Erlotinib, reference compound]
IC50 [1]: 5.18 ± 0.4 µM | IC50 (hepatoblastoma (HePG-2)): 7.9 ± 0.6 µM | MCL-1 expression level ([5]; 2 µM): 560.59 pg/mL | MCL-1 expression level ([5]; 10 μM): 162.37 pg/mL | Comment (cell cycle arrest) (MCF-7 cell line): Cell cycle arrest at G2/M | %G0–G1 (MCF-7 cell line; 2 µM): 46.12% | %G2/M (MCF-7 cell line; 2 µM): 31.05% | %S (MCF-7 cell line; 2 µM): 22.83% | %G0–G1 (MCF-7 cell line; 10 μM): 35.89% | %G2/M (MCF-7 cell line; 10 μM): 48.39% | %S (MCF-7 cell line; 10 μM): 15.72% | Comment (cell cycle arrest) (MCF-7 cell line; listed as erlotinib): cell cycle arrest appeared at the G2/M phase | BCL-2 expression level ([6]; 2 µM): 13.96 ng/mL | BCL-2 expression level ([6]; 10 μM): 3.73 ng/mL | IC50 ([3]; WI-38, read-out: IC50 WI-38): 46.5 µM | IC50 [2]: 8.53 ± 0.5 µM | IC50 [4, 9]: 5.18 to 8.53 µM

COc1cc(C(C)=NNC(=O)CN2C(=O)NC(c3ccccc3)(c3ccccc3)C2=O)cc(OC)c1OC [Compound 18, 2-(2,5-Dioxo-4,4-diphenylimidazolidin-1-yl)-N′-(1-(3,4,5-trimethoxyphenyl)ethylidene)acetohydrazide]
IC50 [1]: 26 ± 1.6 µM | IC50 (hepatoblastoma (HePG-2)): 37.2 ± 2.3 µM | IC50 [3, 7]: 60.8 µM | IC50 [2]: 39.6 ± 2.4 µM

CC(=NNC(=O)CN1C(=O)NC(c2ccccc2)(c2ccccc2)C1=O)c1ccncc1 [Compound 22, 2-(2,5-Dioxo-4,4-diphenylimidazolidin-1-yl)-N′-(1-(pyridin-4-yl)ethylidene)acetohydrazide]
IC50 [1]: 13.1 ± 1.1 µM | IC50 (hepatoblastoma (HePG-2)): 17.2 ± 1.6 µM | IC50 [2]: 26 ± 1.9 µM

COc1ccccc1C(C)=NNC(=O)CN1C(=O)NC(c2ccccc2)(c2ccccc2)C1=O [Compound 14, 2-(2,5-Dioxo-4,4-diphenylimidazolidin-1-yl)-N′-(1-(2-methoxyphenyl)ethylidene)acetohydrazide]
IC50 [1]: 59.1 ± 3.4 µM | IC50 (hepatoblastoma (HePG-2)): 63.3 ± 3.8 µM | IC50 [2]: 74 ± 3.9 µM
